The results in this text go back to patent US8735423B2, “Bicyclic compounds as α4β2 nicotinic acetylcholine receptor ligands” (priority 2009, dated 2014).

Where two headings read alike, the source gives them in different places.

The subject of series [1] is Male Sprague Dawley rats. The series can be described thus: DRL-72s model of animal depression. It is filed as in vivo. Particulars: rat. The protocol: The antidepressant properties of compounds of this invention were evaluated using a model of animal depression: the DRL-72s model. Male Sprague Dawley rats were used as experimental animals. Rats are trained to lever press for a 4″ access to 0.025 mL of water for each correct response during daily 60 minute sessions. All testing takes place on weekdays only. At the beginning of each session, the house light is illuminated and remains lit until the session ends. No other stimuli are presented during testing. After successful lever press training, rats are then required to respond under a DRL-24 second schedule, where only lever presses that are separated by 24 seconds are reinforced. Upon stable responding on a DRL-24 second schedule (5-10 sessions), rats are trained on a DRL-72 second schedule until responding stabilizes at approximately 15% efficiency (approx 25-35 sessions). Specifically, rats receive a reinforcer for each response that is emitted at least 72 seconds after the previous response (IRT). […] Efficiency is recorded as number of reinforced responses÷total number of responses. After stable baseline responding is achieved, defined as responding for 4 consecutive sessions with no more than 10% variability, animals begin drug testing. Animals receive drug no more than 1× per week.

Series [2] concerns High Fat Fed Rats. The series can be described thus: Effect of Test Compounds on Body Weight Gain in High Fat Fed Rats. Format: in vivo, rat. Particulars: high fat diet fed Sprague Dawley rats, oral for 14 days. The text has this:
Effect of Test Compounds on Body Weight Gain in High Fat Fed Rats
The body weight gain suppressing properties of compounds of this invention were studied using a animal model of obesity.
Male Sprague Dawley rats (150-160 grams) obtained from Reliance Life Sciences, India were used as experimental animals. Rats were fed with control diet (normal pellet diet) and lard based high fat diet (45% kcal diet) for 7-8 weeks. High fat diet fed animals was randomized according to their body weights. The animals were housed in a group of 3-4 per cage. One group of 10 rats received vehicle (2 mL/Kg) orally and another set of animals received compound of the formula (I) orally for 14 days. Body weight of the animals was recorded for first three consecutive days then it was recorded twice weekly. Weighed amount of food was given to the animals and food intake was recorded every 24 hour for the entire study period.
Following compound shown positive effects indicating the decrease in the body weight gain.

Series [3] is described as follows: Rodent Brain Penetration Study. Particulars: in vivo, Wistar rat male, P.O, read-out: Steady State Brain Penetration (Cb/Cp). The protocol:
Rodent Brain Penetration Study
Male Wistar rats (230-280 grams) obtained from NIN (National Institute of Nutrition, Hyderabad, India) was used as an experimental animal. Three animals were housed in each cage. Animals were given water and food ad libitum throughout the experiment, and maintained on a 12 hours light/dark cycle.
NCE compound was dissolved in water and administered orally. At Tmax (0.5, 1.0 and 2.0) animals were sacrificed to collect the plasma and brain tissue and was homogenized. Plasma and Brain was stored frozen at −20° C. until analysis. The concentrations of the NCE compound in plasma and Brain were determined using LC-MS/MS method.
The NCE compounds were quantified in plasma and brain homogenate by validated LC-MS/MS method using solid phase extraction technique. NCE compounds were quantified in the calibration range of 1-500 ng/mL in plasma and brain homogenate. Study samples were analyzed using calibration samples in the batch and quality control samples spread across the batch. Extents of brain-blood ratio were calculated (Cb/Cp).

Series [4] has as its system Male Wistar rats. Put plainly: Acute Food Intake Study (animal model of hyperphagia). Format: in vivo. Particulars: rat, oral. Here is the method: The appetite suppressing properties of compounds of this invention were studied using an animal model of hyperphagia.
Male Wistar rats (200-210 grams) obtained from Raj Biotech, India were used as experimental animals. The experiment consisted of 6 days. The rats were adapted to the 18 hour fasting and 6 hour feeding pattern. The animals were housed in a group of three in the cages provided with the fasting grills and were fasted for 18 hours. After 18 hour fasting the rats were separated and placed individually in a cage. Weighed amount of feed was provided to rats for 6 hour and the feed intake at 1, 2, 4 and 6 hours was recorded. Again the rats were regrouped and fasted for 18 hour. The above procedure was followed for 5 days. The average cumulative food intake by the rats on the last 3 days was calculated. Animals were randomised on the basis of their last three days food intake.
One group of 8 rats received vehicle (2 mL/Kg) orally and another set of animals received compound of the formula (I) orally. Then the rats were given access to food and the food intake at 1, 2, 4 and 6 hours was recorded. The food intake by the rats treated with test compound was compared with the vehicle treated group by using students ‘t’ test.
Following compound shown positive effects indicating the suppression of food intake i.e. hypophagia like effects.

The target of series [5] is Human or Rat Nicotinic Acetylcholine α4β2 receptor (UniProt P09483+P12390). The series can be described thus: Binding assay for Human or Rat Nicotinic Acetylcholine α4β2 receptor ([3H] Cytisine). Particulars: [3H] Cytisine 2.5 nM; rat brain frontal cortex or recombinant human cDNA expressed in CHO cells. Here is the method: Binding assay for Human or Rat Nicotinic Acetylcholine α4β2 receptor
Compounds can be evaluated according to the following procedures.
Materials and Methods: • Receptor source: Rat brain frontal cortex or recombinant human cDNA expressed in CHO cells • Radioligand: [^3H] Cytisine 15-40 Ci/mmol • Final ligand concentration—[2.5 nM] • Non-specific determinant: Epibatidine-[0.1 μM] • Reference compound: Epibatidine • Positive control: Epibatidine Incubation Conditions:
Increasing concentrations of test compounds or standard were incubated with membrane receptors and radioligand in 120 mM NaCl, 2.5 mM KCl, 1 mM CaCl2, 1 mM MgCl2 and 50 mM TRIS-HCl (pH 7.4) for 60 minutes at room temperature. The reaction was terminated by rapid vacuum filtration onto the glass fiber filters. Radioactivity trapped onto the filters was determined and compared to the control values in order to ascertain any interactions of the test compound(s) with either cloned human or rat receptor binding site.
Literature Reference: Bunnelle W. H., Daanen J. F., Ryther K. B., Schrimpf M. R., Dart M. J., Gelain A., Meyer M. D., Frost J. M., Anderson D. J., Buckley M., Curzon P., Cao Y-J., Puttfarcken P., Searle X., Ji J., Putman C. B., Surowy C., Toma L. and Barlocco D. Structure-Activity Studies and Analgesic Efficacy of N-(3-Pyridinyl)-Bridged Bicyclic Diamines, Exceptionally Potent Agonists at Nicotinic Acetylcholine Receptors. J. Med. Chem. 2007, 50, […].

`Cl.c1cncc(OCC2CC3CC3N2)c1` (stereo not drawn) [Example 1, 3-(Pyridin-3-yloxymethyl)-2-azabicyclo[3.1.0]hexane hydrochloride]: the “Dose mg/kg, p.o. (DRL-72s)” value in series [1] is given as “≦10 mg/kg, p.o”. In addition, the “% Reduction in body weight gain compared to vehicle (Day 14)” value in series [2] is given as 3.6%. For the same compound, the Inference result in series [2] and in series [4] was “Active” each time. The Kp in series [3] (15 mg/kg) worked out at 3.8 ± 0.289. Further, the “% Suppression of food intake compared to vehicle” value is recorded as 32.25% in series [4] (1 Hour), 25.40% in series [4] (2 Hour), 23.08% in series [4] (4 Hour) and 15.37% in series [4] (6 Hour). In addition, in series [5], the inhibitory constant (Ki) turned out to be 7.7 nM.
For `Cl.Cl.Clc1cncc(OCC2CC3CC3N2)c1` (stereo not drawn) [Example 7, 3-(5-Chloropyridin-3-yloxymethyl)-2-azabicyclo[3.1.0]hexane dihydrochloride], the Kp in series [3] (5 mg/kg) worked out at 3.79 ± 0.66. In series [5], the Ki stood at 0.19 nM.

Usually Ki stands for a dissociation constant, usually derived from enzyme kinetics or from competition with a known ligand.
